For one assay, the system named is L-363 cells. The assay can be described thus: Biological Assay C: antiproliferative activity on L-363 cells (CellTiter-Glo). Format: cell-based. As to conditions: Homo sapiens, 72 hr treatment. How it is done: (§1) Determination of Antiproliferative Activity on LP-1, L-363 and JJN-3 Cells
(§2) All compounds tested were dissolved in DMSO and further dilutions were made in culture medium. Final DMSO concentration was 0.3% (v/v) in cell proliferation assays. Viability was assessed using CellTiter-Glo cell viability assay kit (Promega). The human LP-1, L-363 and JJN-3 cells (DSMZ) were cultured in RPMI 1640 medium supplemented with 2 mM L-glutamine, and 10% fetal calf serum (PAA). Cells were routinely kept as suspension cells at 37° C. in a humidified 5% CO2 atmosphere. Cells were passaged at a seeding density of 0.2×10^6/ml twice a week. Cells were seeded in black tissue culture treated 96-well plates (Perkin Elmer). Densities used for plating ranged from 2,000 to 6,000 cells per well in a total volume of 75 μl medium. After twenty four hours, drugs and/or solvents were added (25 μl) to a final volume of 100 μl. Following 72 hr of treatment plates were removed from the incubator and allowed to equilibrate to room temperature for approx 10 min. 100 μl CellTiter-Glo reagent was added to each well that was then covered (Perkin Elmer Topseal) and shaken on plate shaker for 10 min. Luminescence was measured on a HTS Topcount (Perkin Elmer). Within an experiment, the results for each treatment were the mean of 2 replicate wells. For initial screening purposes, compounds were tested using a 9 point dilution curve (serial 1:3 dilutions). For each experiment, controls (containing no drug) and a blank incubation (containing cells read at the time of compound addition) were run in parallel. The blank value was subtracted from all control and sample values. For each sample, the mean value for cell growth (in relative light units) was expressed as a percentage of the mean value for cell growth of the control.

The subject of another assay is LP-1 cells. The experiment in a line: Biological Assay C: antiproliferative activity on LP-1 cells (CellTiter-Glo). Format: cell-based. As to conditions: Homo sapiens, 72 hr treatment. How it is done: as §1, §2
Assay [1] addresses T1, Recombinant Human NF-kappaB-Inducing Kinase (NIK/MAP3K14) (Homo sapiens, UniProt Q99558). The assay can be described thus: Biological Assay A2: inhibition of auto-phosphorylation of recombinant human NIK/MAP3K14 (AlphaScreen). The assay is classed as biochemical. The settings on record: 25 microM ATP, 0.2 nM NIK/MAP3K14, 1 h at 25° C., averaged over all batches, read-out: Alpha-Screen IC50. The method, then: Inhibition of Auto-Phosphorylation of Recombinant Human NF-kappaB-Inducing Kinase (NIKIMAP3K14) Activity (AlphaScreen®)
NIK/MAP3K14 auto-phosphorylation activity was measured using the AlphaScreen® (ascreen) format (Perkin Elmer). All compounds tested were dissolved in dimethyl sulfoxide (DMSO) and further dilutions were made in assay buffer. Final DMSO concentration was 1% (v/v) in assays. Assay buffer was 50 mM Tris pH 7.5 containing 1 mM EGTA (ethylene glycol tetraacetic acid), 1 mM DTT (dithiothreitol), 0.1 mM Na3VO4, 5 mM MgCl2, 0.01% Tween® 20. Assays were carried out in 384 well Alphaplates (Perkin Elmer). Incubations consisted of compound, 25 microM Adenosine-5′-triphosphate (ATP), and 0.2 nM NIK/MAP3K14. Incubations were initiated by addition of GST-tagged NIK/MAP3K14 enzyme, carried out for 1 h at 25° C. and terminated by addition of stop buffer containing anti-phospho-IKK Ser176/180 antibody. Protein A Acceptor and Glutathione-Donor beads were added before reading using an EnVision® Multilabel Plate Reader (Perkin Elmer). Signal obtained in the wells containing blank samples was subtracted from all other wells and IC50's were determined by fitting a sigmoidal curve to % inhibition of control versus Log10 compound concentration.

The subject of the next assay is JJN-3 cells. The assay can be described thus: Biological Assay C: antiproliferative activity on JJN-3 cells (CellTiter-Glo). Format: cell-based. The settings on record: Homo sapiens, 72 hr treatment. How it is done: as §1, §2
The target in assay [2] is T1, Recombinant Human NF-kappaB-Inducing Kinase (NIK/MAP3K14). The assay can be described thus: Biological Assay A: inhibition of recombinant human NIK/MAP3K14 activity (MSD, MBP substrate). As to conditions: 25 μM ATP, 10 nM NIK/MAP3K14, 1 h at 25° C.; averaged over all batches; read-out: Biochemical (MSD MBP) IC50. The method, then: Inhibition of Recombinant Human NF-kappaB-Inducing Kinase (NIKIMAP3K14) Activity
Assay buffer was 50 mM Tris pH 7.5 containing 1 mM ethylene glycol tetraacetic acid (EGTA), 1 mM dithiothreitol (DTT), 0.1 mM Na3VO4, 5 mM MgCl2, 0.01% Tween® 20. Assays were carried out in 384 well Mesoscale high binding plates which had been coated with myelin basic protein (MBP) and blocked with bovine serum albumin to prevent non-specific protein binding. All compounds tested were dissolved in dimethyl sulfoxide (DMSO) and further dilutions were made in assay buffer. Final DMSO concentration was 1% (v/v) in assays. Incubations consisted of compound (1% DMSO in control and blank wells), 25 μM Adenosine-5′-triphosphate (ATP), and 10 nM NIK/MAP3K14 substituting enzyme with buffer in the blank wells. Incubations were carried out for 1 h at 25° C. and were followed by washing and sequential incubation with rabbit anti-phospho-MBP and anti-rabbit Ig Sulfotag antibody before reading bound Sulfotag on a Mesoscale Discovery. Signal obtained in the wells containing blank samples was subtracted from all other wells and IC50's were determined by fitting a sigmoidal curve to % inhibition of control versus Log10 compound concentration.

For assay [3], the system named is P-IKKα levels in L363 cells. The experiment in a line: Biological Assay B: effect of compounds on P-IKKα levels in L363 cells. The assay is classed as cell-based. As to conditions: Homo sapiens, L-363, BAFF stimulated, 2 hr treatment, averaged over all batches, read-out: IKKα Cellular IC50. How it is done:
Effect of Compounds on P-IKKα Levels in L363 Cells
All compounds tested were dissolved in DMSO and further dilutions were made in culture medium. Final DMSO concentration was 1% (v/v) in cell assays. The human L363 cells (ATCC) were cultured in RPMI 1640 medium supplemented with GlutaMax and 10% fetal calf serum (PAA). Cells were routinely maintained at densities of 0.2×10^6 cells per ml-1×10^6 cells per ml at 37° C. in a humidified 5% CO2 atmosphere. Cells were passaged twice a week splitting back to obtain the low density. Cells were seeded in 96 well plates (Nunc 167008) at 2×10^6 per ml media in a volume of 75 μl per well plus 25 μl 1 μg/ml recombinant human B-cell activating factor (BAFF/BLyS/TNFSF13B). Seeded cells were incubated at 37° C. in a humidified 5% CO2 atmosphere for 24 hr. Drugs and/or solvents were added (20 μl) to a final volume of 120 μl. Following 2 hr treatment plates were removed from the incubator and cell lysis was achieved by the addition of 30 μl 5× lysis buffer followed by shaking on a plate shaker at 4° C. for 10 min. At the end of this incubation lysed cells were centrifuged at 800×g for 20 min at 4° C. and the lysate was assessed for P-IKKα levels by sandwich immuno-assay carried out in anti-rabbit antibody coated Mesoscale plates. Within an experiment, the results for each treatment were the mean of 2 replicate wells. For initial screening purposes, compounds were tested using an 8 point dilution curve (serial 1:3 dilutions). For each experiment, controls (containing MG132 and BAFF but no test drug) and a blank incubation (containing MG132 and BAFF and 10 μM ADS125117, a test concentration known to give full inhibition) were run in parallel. The blank incubation value was subtracted from all control and sample values. To determine the IC50 a sigmoidal curve was fitted to the plot of % inhibition of control P-IKKα levels versus Log10 compound concentration.

Data on 20 compounds can be found in patent US10005773B2, “1-(4-pyrimidinyl)-1H-pyrrolo[3,2-c]pyridine derivatives as NIK inhibitors” (Janssen Pharmaceutica NV, priority 2013, dated 2018).

T1 sequence (Q99558 whole entry): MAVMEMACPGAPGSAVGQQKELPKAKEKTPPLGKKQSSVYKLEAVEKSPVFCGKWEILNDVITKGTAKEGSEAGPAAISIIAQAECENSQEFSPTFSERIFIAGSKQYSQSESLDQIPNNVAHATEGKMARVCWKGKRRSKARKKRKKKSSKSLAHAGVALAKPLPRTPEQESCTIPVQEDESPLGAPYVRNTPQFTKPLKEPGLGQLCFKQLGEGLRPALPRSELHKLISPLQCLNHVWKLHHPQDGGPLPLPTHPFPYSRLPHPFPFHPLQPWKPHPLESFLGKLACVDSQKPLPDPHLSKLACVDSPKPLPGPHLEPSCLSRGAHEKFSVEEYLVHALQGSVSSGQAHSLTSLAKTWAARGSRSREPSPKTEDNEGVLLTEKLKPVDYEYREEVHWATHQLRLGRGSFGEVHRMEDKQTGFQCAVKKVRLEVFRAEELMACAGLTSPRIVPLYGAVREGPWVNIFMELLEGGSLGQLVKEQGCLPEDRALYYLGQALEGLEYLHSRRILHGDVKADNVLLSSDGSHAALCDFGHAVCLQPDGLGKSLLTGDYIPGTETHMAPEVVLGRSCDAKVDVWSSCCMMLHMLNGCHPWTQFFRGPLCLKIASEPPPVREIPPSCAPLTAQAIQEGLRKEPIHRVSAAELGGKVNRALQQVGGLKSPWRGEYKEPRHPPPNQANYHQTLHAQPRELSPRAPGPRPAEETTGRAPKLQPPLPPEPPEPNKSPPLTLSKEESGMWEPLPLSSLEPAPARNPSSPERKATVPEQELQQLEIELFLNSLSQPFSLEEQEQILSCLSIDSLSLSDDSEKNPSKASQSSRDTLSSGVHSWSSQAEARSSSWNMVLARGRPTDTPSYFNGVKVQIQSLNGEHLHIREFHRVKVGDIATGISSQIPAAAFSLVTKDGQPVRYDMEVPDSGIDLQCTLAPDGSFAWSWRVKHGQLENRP

`CC(O)(C#Cc1cc2c(cn1)c(C1CCN(CCC(F)(F)F)CC1)cn2-c1ccnc(N)n1)C1CC1` (single isomer, unassigned) [Compound 51]: the results for the EC50 in the assay with L-363 cells, with LP-1 cells and with JJN-3 cells were 108 nM, 199 nM and 220 nM, respectively. Moreover, the IC50 in assay [1] was found to be 13 nM.
For `Nc1nccc(-n2ccc3cnc(C#CC4(O)CCCC4)cc32)n1` [Compound 1], the EC50 worked out at 673 nM with L-363 cells, 929 nM with LP-1 cells and 320 nM in the assay with JJN-3 cells. The results for the IC50 in assay [2] and in assay [3] were 8.9 nM and 13 nM, respectively.
In the case of `CC(C)(O)C#Cc1cc2c(ccn2-c2ccnc(N)n2)cn1` [Compound 3], the figures for the EC50 in the assay on L-363 cells, with LP-1 cells and in the assay with JJN-3 cells were 43 nM, 84 nM and 46 nM, respectively. Also, in assay [3], the concentration for half-maximal inhibition (IC50) worked out at 13 nM.
Take `CC(CC#N)c1cn(-c2nc(N)ncc2F)c2cc(C#CC(C)(C)O)ncc12` (stereo not drawn) [Compound 38]: the concentration for a half-maximal effect (EC50) in the assay with L-363 cells is 261 nM; in the assay with LP-1 cells, 2600 nM; in the assay with JJN-3 cells, 614 nM. The half-inhibitory concentration (IC50) in assay [1] is 38 nM.
As for `COCCCc1cn(-c2nc(N)ncc2F)c2cc(C#CC(C)(C)O)ncc12` [Compound 39], the EC50 in the assay on L-363 cells turned out to be 369 nM; with LP-1 cells, 849 nM; in the assay on JJN-3 cells, 579 nM. Further, in assay [1], the IC50 was 36 nM.
Regarding `CC(C)(O)C#Cc1cc2c(cn1)c(C1CCN(CCF)CC1)cn2-c1nc(N)ncc1F` [Compound 40], the EC50 came out at 93 nM in the assay with L-363 cells, 259 nM in the assay with LP-1 cells and 151 nM in the assay with JJN-3 cells. Moreover, in assay [1], the IC50 was found to be 74 nM.
The like results for `CN1CCC(c2cn(-c3ccnc(N)n3)c3cc(C#CC(C)(O)C4CC4)ncc23)CC1` (stereo not drawn) [Compound 41] were, in that order, 213 nM, 3240 nM, 311 nM and 78 nM.
On to `CC(O)(C#Cc1cc2c(cn1)c(C1(F)CN(C3CC3)C1)cn2-c1ccnc(N)n1)C1CC1` (stereo not drawn) [Compound 42], for which the 50% effective concentration (EC50) in the assay on L-363 cells is 1540 nM; in the assay on LP-1 cells, 18200 nM; in the assay with JJN-3 cells, 2790 nM. The IC50 in assay [1] was 638 nM.
`CC(O)(C#Cc1cc2c(cn1)c(C1CCN(CCC(F)(F)F)CC1)cn2-c1ccnc(N)n1)C1CC1` (stereo not drawn) [Compound 43]: the EC50 in the assay on L-363 cells was determined as 292 nM; with LP-1 cells, 461 nM; with JJN-3 cells it was 442 nM. For the same compound, the IC50 in assay [1] turned out to be 67 nM.
For `CC(O)(C#Cc1cc2c(cn1)c(C1CCN(C3CC3)CC1)cn2-c1ccnc(N)n1)C1CC1` (stereo not drawn) [Compound 44], in that order: 98 nM, 251 nM, 202 nM and 71 nM.
Take `[2H]C([2H])([2H])C(O)(C#Cc1cc2c(cn1)c(C1CCN(C3CC3)CC1)cn2-c1ccnc(N)n1)C([2H])([2H])[2H]` [Compound 45]: the EC50 in the assay on L-363 cells turned out to be 8.3 nM; in the assay with LP-1 cells it was 29 nM; in the assay on JJN-3 cells, 19 nM. In addition, in assay [1], the IC50 worked out at 49 nM.
On to `CC(O)(C#Cc1cc2c(cn1)c(C1CCN(CCC(F)(F)F)CC1)cn2-c1nc(N)ncc1F)C1CC1` (stereo not drawn) [Compound 46], for which the EC50 was found to be 469 nM in the assay with L-363 cells, 979 nM in the assay with LP-1 cells and 1090 nM in the assay on JJN-3 cells. In addition, in assay [1], the IC50 came to 56 nM.
For `CC(O)(C#Cc1cc2c(cn1)c(C1CCN(CCCF)CC1)cn2-c1nc(N)ncc1F)C1CC1` (stereo not drawn) [Compound 47], in that order: 113 nM, 237 nM, 242 nM and 34 nM.
Consider `CC(O)(C#Cc1cc2c(cn1)c(C1CCCN(CCC(F)(F)F)C1)cn2-c1nc(N)ncc1F)C1CC1` (stereo not drawn) [Compound 48], for which the EC50 with L-363 cells was found to be 1000 nM; with LP-1 cells, 2230 nM; with JJN-3 cells, 1670 nM. Further, the IC50 in assay [1] stood at 227 nM.
The like results for `[2H]C([2H])([2H])C(O)(C#Cc1cc2c(cn1)c(C1CCN(CCC(F)(F)F)CC1)cn2-c1nc(N)ncc1F)C([2H])([2H])[2H]` [Compound 49] were, in that order, 130 nM, 244 nM, 231 nM and 69 nM.
For `[2H]C([2H])([2H])C(O)(C#Cc1cc2c(cn1)c(C1CCN(CCC(F)(F)F)CC1)cn2-c1ccnc(N)n1)C([2H])([2H])[2H]` [Compound 50], in that order: 23 nM, 41 nM, 39 nM and 30 nM.
For `[2H]C([2H])([2H])C(O)(C#Cc1cc2c(cn1)c(C1CCN(Cc3ccccc3)CC1)cn2-c1ccnc(N)n1)C([2H])([2H])[2H]` [Compound 52], in that order: 49 nM, 65 nM, 89 nM and 31 nM.
Regarding `[2H]C([2H])([2H])N1CCC(c2cn(-c3ccnc(N)n3)c3cc(C#CC(O)(C([2H])([2H])[2H])C([2H])([2H])[2H])ncc23)CC1` [Compound 53], the values for the EC50 in the assay on L-363 cells, in the assay on LP-1 cells and in the assay on JJN-3 cells were 12 nM, 107 nM and 32 nM, respectively. The IC50 in assay [1] worked out at 35 nM.
For `Cc1cc(C(C)(O)C#Cc2cc3c(cn2)c(C2CCN(C)CC2)cn3-c2ccnc(N)n2)no1` (stereo not drawn) [Compound 54], in that order: 213 nM, 2530 nM, 656 nM and 42 nM.
For `CN1CCC(c2cn(-c3ccnc(N)n3)c3cc(C#CC(C)(O)c4nccs4)ncc23)CC1` (stereo not drawn) [Compound 56], in that order: 1240 nM, 7890 nM, 2490 nM and 26 nM.
